The source made the active and inactive calls. How the calls were made is not given here.
Test system: CCRIS mutagenicity, Ames/micronucleus/aberration tests
Experiment: CCRIS mutagenicity studies
Settings: Test System: AMES SALMONELLA TYPHIMURIUM

O=c1oc2cc([N+](=O)[O-])ccc2c2ccccc12
mutagenic call (Strain/Indicator: TA98(1,8-DNP6), Metabolic Activation: NONE, Method: MICROSUSPENSION): active; positive
mutagenic call (Strain/Indicator: TA98(1,8-DNP6), Metabolic Activation: NONE, Method: PREINCUBATION): active; positive
mutagenic call (Strain/Indicator: TA98(1,8-DNP6), Metabolic Activation: NONE, Method: STANDARD PLATE): active; positive
mutagenic call (Strain/Indicator: TA98(NR), Metabolic Activation: NONE, Method: MICROSUSPENSION): active; positive
mutagenic call (Strain/Indicator: TA98(NR), Metabolic Activation: NONE, Method: PREINCUBATION): active; positive
mutagenic call (Strain/Indicator: TA98(NR), Metabolic Activation: NONE, Method: STANDARD PLATE): active; positive
mutagenic call (Strain/Indicator: TA98(NR), Metabolic Activation: RAT LIVER S-9 (15%), Method: PREINCUBATION): active; positive
mutagenic call (Strain/Indicator: TA98(NR), Metabolic Activation: RAT LIVER S-9, 3-METHYLCHOLANTHRENE, Method: PREINCUBATION): active; positive
mutagenic call (Strain/Indicator: TA98(NR), Metabolic Activation: RAT LIVER S-9, BETA-NAPHTHOFLAVONE (15%), Method: PREINCUBATION): active; positive
mutagenic call (Strain/Indicator: TA98(NR), Metabolic Activation: RAT LIVER S-9, PCB (15%), Method: PREINCUBATION): active; positive
mutagenic call (Strain/Indicator: TA98(NR), Metabolic Activation: RAT LIVER S-9, PHENOBARBITAL (15%), Method: PREINCUBATION): active; positive
mutagenic call (Strain/Indicator: TA98(NR), Metabolic Activation: RAT, LIVER, S-9, AROCLOR 1254, Method: STANDARD PLATE): active; positive
mutagenic call (Strain/Indicator: TA98, Metabolic Activation: NONE, Method: MICROSUSPENSION): active; positive
mutagenic call (Strain/Indicator: TA98, Metabolic Activation: NONE, Method: PREINCUBATION): active; positive
mutagenic call (Strain/Indicator: TA98, Metabolic Activation: NONE, Method: STANDARD PLATE): active; positive
mutagenic call (Strain/Indicator: TA98, Metabolic Activation: RAT, LIVER, S-9, AROCLOR 1254, Method: MICROSUSPENSION): active; positive
mutagenic call (Strain/Indicator: TA98, Metabolic Activation: RAT, LIVER, S-9, AROCLOR 1254, Method: STANDARD PLATE): active; positive
mutagenic call (Strain/Indicator: TA100, Metabolic Activation: NONE, Method: MICROSUSPENSION): active; positive
mutagenic call (Strain/Indicator: TA100, Metabolic Activation: NONE, Method: PREINCUBATION): active; positive
mutagenic call (Strain/Indicator: TA100, Metabolic Activation: NONE, Method: STANDARD PLATE): active; positive
mutagenic call (Strain/Indicator: TA100, Metabolic Activation: RAT LIVER S-9, 3-METHYLCHOLANTHRENE (15%), Method: PREINCUBATION): active; positive
mutagenic call (Strain/Indicator: TA100, Metabolic Activation: RAT, LIVER, S-9, AROCLOR 1254, Method: MICROSUSPENSION): active; positive
mutagenic call (Strain/Indicator: TA100, Metabolic Activation: RAT, LIVER, S-9, AROCLOR 1254, Method: STANDARD PLATE): active; positive
mutagenic call (Strain/Indicator: TA1535, Metabolic Activation: NONE, Method: STANDARD PLATE): active; positive
mutagenic call (Strain/Indicator: TA1535, Metabolic Activation: RAT, LIVER, S-9, AROCLOR 1254, Method: STANDARD PLATE): active; positive
mutagenic call (Strain/Indicator: TA1537, Metabolic Activation: NONE, Method: STANDARD PLATE): active; positive
mutagenic call (Strain/Indicator: TA1537, Metabolic Activation: RAT, LIVER, S-9, AROCLOR 1254, Method: STANDARD PLATE): active; positive
mutagenic call (Strain/Indicator: TA1538, Metabolic Activation: NONE, Method: STANDARD PLATE): active; positive
mutagenic call (Strain/Indicator: TA1538, Metabolic Activation: RAT, LIVER, S-9, AROCLOR 1254, Method: STANDARD PLATE): active; positive
mutagenic call (Strain/Indicator: TA7001, Metabolic Activation: NONE, Method: PREINCUBATION): inactive; negative
mutagenic call (Strain/Indicator: TA7001, Metabolic Activation: RAT LIVER S-9, 3-METHYLCHOLANTHRENE (15%), Method: PREINCUBATION): inactive; negative
mutagenic call (Strain/Indicator: TA7002, Metabolic Activation: NONE, Method: PREINCUBATION): active; positive
mutagenic call (Strain/Indicator: TA7002, Metabolic Activation: RAT LIVER S-9, 3-METHYLCHOLANTHRENE, Method: PREINCUBATION): active; positive
mutagenic call (Strain/Indicator: TA7003, Metabolic Activation: NONE, Method: PREINCUBATION): inactive; negative
mutagenic call (Strain/Indicator: TA7003, Metabolic Activation: RAT LIVER S-9, 3-METHYLCHOLANTHRENE, Method: PREINCUBATION): inactive; negative
mutagenic call (Strain/Indicator: TA7004, Metabolic Activation: NONE, Method: PREINCUBATION): active; positive
mutagenic call (Strain/Indicator: TA7004, Metabolic Activation: RAT LIVER S-9, 3-METHYLCHOLANTHRENE, Method: PREINCUBATION): active; positive
mutagenic call (Strain/Indicator: TA7005, Metabolic Activation: NONE, Method: PREINCUBATION): active; positive
mutagenic call (Strain/Indicator: TA7005, Metabolic Activation: RAT LIVER S-9, 3-METHYLCHOLANTHRENE, Method: PREINCUBATION): active; positive
mutagenic call (Strain/Indicator: TA7006, Metabolic Activation: NONE, Method: PREINCUBATION): active; positive
mutagenic call (Strain/Indicator: TA7006, Metabolic Activation: RAT LIVER S-9, 3-METHYLCHOLANTHRENE, Method: PREINCUBATION): active; positive
